In patent US20240174670A1, “4-AMINO-6-OXO-PYRIDAZINE DERIVATIVES MODULATING NLRP3” (JANSSEN PHARMACEUTICA NV, priority 2021, published 2024) one finds AC50 data, which are given here for 30 compounds.

For one test, the system named is IL-1β. Kind of test: PBMC assay, IL-1β release after LPS stimulation. The note with it: human PBMCs, 30 min preincubation, 100 ng/ml LPS for 6 hrs, supernatant, MSD technology, read-out: IL1β AC50. In kind it is cell-based. As to the method:
The activity of a compound according to the present invention can be assessed by in vitro methods.
(§1) Peripheral venous blood was collected from healthy individuals and human peripheral blood mononuclear cells (PBMCs) were isolated from blood by Ficoll-Histopaque (Sigma-Aldrich, A0561) density gradient centrifugation. After isolation, PBMCs were stored in liquid nitrogen for later use. Upon thawing, PBMC cell viability was determined in growth medium (RPMI media supplemented with 10% fetal bovine serum, 1% Pen-Strep and 1% L-glutamine). Compounds were spotted in a 1:3 serial dilution in DMSO and diluted to the final concentration in 30 μl medium in 96 well plates (Falcon, 353072). PBMCs were added at a density of 7.5×10^4 cells per well and incubated for 30 min in a 5% CO2 incubator at 37 ° C. LPS stimulation was performed by addition of 100 ng/ml LPS (final concentration, Invivogen, tlrl-smlps) for 6 hrs followed by collection of cellular supernatant and the analysis of IL-1β[…] and TNF cytokines levels (uμ) via MSD technology according to manufacturers' guidelines (MSD, K151A0H).
(§2) IC50 and AC50 values (for IL-1β) and EC50 and AC50 values (TNF) were obtained on compounds of the invention/examples, and the AC50 values are depicted in the following table: […]

In a further test the test system is TNF. Kind of test: PBMC assay, TNF release after LPS stimulation. It is filed as cell-based. The note with it: human PBMCs, 30 min preincubation, 100 ng/ml LPS for 6 hrs, supernatant, MSD technology. The protocol:
as §1, §2

Usually AC50 stands for the midpoint of the concentration-response curve, whichever way the signal moves.

Regarding `CC(C)c1nn(CC(=O)Nc2ccc3nncn3c2)c(=O)cc1Nc1cccc(C2CC2)n1` [Compound 38, N-([1,2,4]triazolo[4,3-a]pyridin-6-yl)-2-(4-((6-cyclopropylpyridin-2-yl)amino)-3-isopropyl-6-oxopyridazin-1(6H)-yl)acetamide], the AC50 in the test with IL-1β and with TNF was above 4 µM throughout.

As to `CC(C)c1nn(CC(=O)Nc2ccc3nncn3c2)c(=O)cc1Nc1cnc(C2CC2)nc1` [Compound 39], the AC50 in the test with IL-1β and in the test with TNF was above 6.67 µM each time.

As to `CC(C)c1nn(CC(=O)Nc2ccc3nncn3c2)c(=O)cc1NC(C)C1CC1(F)F` (stereo not drawn) [Compound 40, N-([1,2,4]triazolo[4,3-a]pyridin-6-yl)-2-(4-((1-(2,2-difluorocyclopropyl)ethyl)amino)-3-isopropyl-6-oxopyridazin-1(6H)-yl)acetamide], the AC50 in the test on IL-1β and in the test on TNF was above 20 µM each time.

As for `CC(C)c1nn(CC(=O)Nc2ccc3nncn3c2)c(=O)cc1Nc1ccc2oncc2c1` [Compound 41, N-([1,2,4]triazolo[4,3-a]pyridin-6-yl)-2-(4-(benzo[d]isoxazol-5-ylamino)-3-isopropyl-6-oxopyridazin-1(6H)-yl)acetamide], the AC50 in the test on IL-1β and in the test on TNF was above 20 µM each time.

With `CC(C)c1nn(CC(=O)Nc2ccc3nncn3c2)c(=O)cc1Nc1cccc2ocnc12` [Compound 42], the AC50 in the test on IL-1β and with TNF was above 20 µM each time.

For the compound `CC(C)c1nn(CC(=O)Nc2ccc3nncn3c2)c(=O)cc1Nc1cc([C@H]2C[C@H]2C)on1` [Compound 43], the concentration at half-maximal activity (AC50) with IL-1β and in the test with TNF was above 20 µM in each case.

For the compound `CC(C)c1nn(CC(=O)Nc2ccc3nncn3c2)c(=O)cc1Nc1cc(CC2CC2)on1` [Compound 44], the AC50 in the test with IL-1β and in the test on TNF was above 20 µM each time.

In the case of `CC(C)c1nn(CC(=O)Nc2ccc3nncn3c2)c(=O)cc1N1CCCCC1` [Compound 45, N-([1,2,4]triazolo[4,3-a]pyridin-6-yl)-2-(3-isopropyl-6-oxo-4-(piperidin-1-yl)pyridazin-1(6H)-yl)acetamide], the concentration at half-maximal activity (AC50) was 1.23 µM in the test with IL-1β and above 20 µM in the test with TNF.

As to `CC(C)CNc1cc(=O)n(CC(=O)Nc2ccc3nncn3c2)nc1C(C)C` [Compound 46], the AC50 is 1.36 µM in the test with IL-1β and above 20 µM in the test on TNF.

For the compound `CC(C)CN(C)c1cc(=O)n(CC(=O)Nc2ccc3nncn3c2)nc1C(C)C` [Compound 47], the concentration at half-maximal activity (AC50) with IL-1β was 13.8 µM; with TNF, above 20 µM.

Turning to `CC(C)c1nn(CC(=O)Nc2ccc3nncn3c2)c(=O)cc1N1CCN(C)CC1` [Compound 48], the AC50 with IL-1β and with TNF was above 20 µM each time.

In the case of `CC(C)c1nn(CC(=O)Nc2ccc3nncn3c2)c(=O)cc1N1CC2(CCC2)C1` [Compound 49], the AC50 with IL-1β stood at 0.76 µM; in the test on TNF, 8.29 µM.

For the compound `CC(C)c1nn(CC(=O)Nc2ccc3nncn3c2)c(=O)cc1N1CC2(COC2)C1` [Compound 50], the AC50 in the test on IL-1β and in the test with TNF was above 20 µM each time.

`CC(C)c1nn(CC(=O)Nc2ccc3nncn3c2)c(=O)cc1N1CC[C@H](C)C1` [Compound 51]: the AC50 was 0.42 µM in the test with IL-1β and above 20 µM in the test on TNF.

As to `CC(C)c1nn(CC(=O)Nc2ccc3nncn3c2)c(=O)cc1N1CCC2(CCCO2)C1` (stereo not drawn) [Compound 52], the AC50 in the test on IL-1β and in the test on TNF was above 20 µM in each case.

As for `CC(C)c1nn(CC(=O)Nc2ccc3nncn3c2)c(=O)cc1N1CC2(C1)CC(F)(F)C2` [Compound 53], the AC50 in the test with IL-1β and with TNF was above 20 µM throughout.

As to `CC(C)c1nn(CC(=O)Nc2ccc3nncn3c2)c(=O)cc1N1CCCCC1C` (stereo not drawn) [Compound 54], the AC50 is 3.62 µM in the test on IL-1β and above 20 µM with TNF.

In the case of `CC(C)c1nn(CC(=O)Nc2ccc3nncn3c2)c(=O)cc1N1CCC[C@H](C)C1` [Compound 55], the AC50 with IL-1β is 0.51 µM; with TNF, above 20 µM.

As to `CC1CC(C)CN(c2cc(=O)n(CC(=O)Nc3ccc4nncn4c3)nc2C(C)C)C1` (stereo not drawn) [Compound 56], the AC50 came out at 0.64 µM in the test on IL-1β and 16 µM in the test on TNF.

On to `CC(C)c1nn(CC(=O)Nc2ccc3nncn3c2)c(=O)cc1N1CCC(Cc2ccncc2)C1` (stereo not drawn) [Compound 57], for which the concentration at half-maximal activity (AC50) with IL-1β and in the test on TNF was above 20 µM throughout.

With `CC(C)c1nn(CC(=O)Nc2ccc3nncn3c2)c(=O)cc1N1CCC2(C1)CC2(F)F` (stereo not drawn) [Compound 58], the AC50 in the test with IL-1β is 0.89 µM; in the test with TNF it was above 20 µM.

`CC(C)c1nn(CC(=O)Nc2ccc3nncn3c2)c(=O)cc1N1CCC(Oc2ccccn2)C1` (stereo not drawn) [Compound 59]: the values for the AC50 with IL-1β and in the test on TNF were 9.92 µM and 16.1 µM, respectively.

Take `CC(C)c1nn(CC(=O)Nc2ccc3nncn3c2)c(=O)cc1N1CCCC(F)C1` (stereo not drawn) [Compound 60]: the AC50 in the test with IL-1β came to 1.59 µM; with TNF, 19.1 µM.

Consider `CC(C)c1nn(CC(=O)Nc2ccc3nncn3c2)c(=O)cc1N1CCC2(CC1)CC2(F)F` [Compound 61], for which the AC50 in the test on IL-1β is 19.5 µM; in the test on TNF, above 20 µM.

For `CC(C)c1nn(CC(=O)Nc2ccc3nncn3c2)c(=O)cc1N1CCC[C@@H]1Cn1ccnc1` [Compound 62], the AC50 in the test with IL-1β and in the test on TNF was above 20 µM throughout.

`CC(C)c1nn(CC(=O)Nc2ccc3nncn3c2)c(=O)cc1N1CCCC1Cc1ccccn1` (stereo not drawn) [Compound 63]: the figures for the AC50 in the test with IL-1β and in the test with TNF were 1.28 µM and above 20 µM, respectively.

Regarding `CC(C)c1nn(CC(=O)Nc2ccc3nncn3c2)c(=O)cc1N1CCC(c2nccs2)C1` (stereo not drawn) [Compound 64], the figures for the AC50 with IL-1β and in the test on TNF were 15.1 µM and above 20 µM, respectively.

Regarding `CC(C)c1nn(CC(=O)Nc2ccc3nncn3c2)c(=O)cc1N1CCC(c2ccncc2)C1` (stereo not drawn) [Compound 65], the AC50 with IL-1β and with TNF was above 20 µM throughout.

Regarding `CC(C)c1nn(CC(=O)Nc2ccc3nncn3c2)c(=O)cc1NC1CC1` [Compound 66], the AC50 with IL-1β and with TNF was above 20 µM each time.

With `CC(C)c1nn(CC(=O)Nc2ccc3nncn3c2)c(=O)cc1N(C)C1CC1` [Compound 67], the AC50 is 10.2 µM with IL-1β and above 20 µM with TNF.
